Square brackets hold non-standard residues; d marks the D form. Peptide text beside a SMILES is read from it.
These compounds were tested against SARS-CoV-2-PLpro enzyme (Severe acute respiratory syndrome coronavirus 2, UniProt P0DTD1) (assay: SARS-CoV-2-PLpro enzyme inhibition assay). Conditions: read-out: Percent inhibition.
Type: biochemical
Experimental: The inhibition assay was carried out as follows. 1 μM SARS-CoV-2-PLpro enzyme was incubated with 25 μM Arg-Leu-Arg-Gly-Gly-AMC substrate and 100 μM of the inhibitor peptide tested, in reaction buffer (100 mM NaCl, 50 mM HEPES [pH=7.5], 0.01 mg/mL bovine serum albumin, and 5 mM DTT) to a final volume of 50 μL. A control reaction with no inhibitory peptide was included and serves as the basis for “no inhibition”. Each reaction was carried in triplicate. The percentage inhibition was calculated by […].
`CC(C)C[C@@H](NC(=O)[C@@H](N)CCCNC(=N)N)C(=O)N[C@@H](CCCNC(=N)N)C(=O)NCC(=O)NCC(=O)O` [Arg - Leu - Arg - Gly - Gly] showed an inhibition at 100 µM of 10 to 15%.
`CC(C)C[C@@H](NC(=O)[C@@H](N)CCCNC(=N)N)C(=O)N[C@@H](CCCCN)C(=O)NCC(=O)NCC(=O)O` [Arg - Leu - Lys - Gly - Gly] (H-R[dL]KGG-OH) was tested, and the inhibition at 100 µM was 5 to 10%.
`CC(C)C[C@@H](NC(=O)[C@@H](N)CCC(=O)O)C(=O)N[C@@H](CC(N)=O)C(=O)NCC(=O)NCC(=O)O` [Glu - Leu - Asn - Gly - Gly] (H-E[dL]NGG-OH) showed an inhibition at 100 µM of 0%.
In the case of `CC(C)C[C@@H](NC(=O)[C@@H](N)CO)C(=O)N[C@@H](CCCCN)C(=O)NCC(=O)NCC(=O)O` [Ser - Leu - Lys - Gly - Gly] (H-S[dL]KGG-OH), the inhibition at 100 µM is reported as 0%.
